Test results: patent US20250122160A1, “PROTEIN TYROSINE PHOSPHATASE INHIBITORS AND METHODS OF USE THEREOF” (Calico Life Sciences LLC, priority 0001, published 2025)

Columns and labels:
IP10 = experiment: Cytokine measurement in mouse plasma (IP10); type: in vivo; conditions: day 8 of dosing
Description: Whole blood was drawn into EDTA powder coated tubes by cardiac puncture from mice on day 8 of dosing with Compound 118 (2 hours after the 16th dose) and plasma was prepared by centrifugation. Cytokines in plasma were measured using the Th1/Th2 Cytokine & Chemokine 20-Plex Mouse ProcartaPlex™ Panel 1 (Invitrogen, Carlsbad, CA). IP10 levels (pg/mL) in vehicle or Compound 118 treated animals were reported.

[1] = target: T1, His tagged full-length PTPN1 protein (Homo sapiens, UniProt P18031); experiment: Mobility shift assay (MSA) to determine potency of PTPN1 inhibitors; type: biochemical; conditions: 0.5 nM enzyme, 2 μM substrate
T1 construct: made in house
T1 sequence (P18031 with tags, fused parts or gaps): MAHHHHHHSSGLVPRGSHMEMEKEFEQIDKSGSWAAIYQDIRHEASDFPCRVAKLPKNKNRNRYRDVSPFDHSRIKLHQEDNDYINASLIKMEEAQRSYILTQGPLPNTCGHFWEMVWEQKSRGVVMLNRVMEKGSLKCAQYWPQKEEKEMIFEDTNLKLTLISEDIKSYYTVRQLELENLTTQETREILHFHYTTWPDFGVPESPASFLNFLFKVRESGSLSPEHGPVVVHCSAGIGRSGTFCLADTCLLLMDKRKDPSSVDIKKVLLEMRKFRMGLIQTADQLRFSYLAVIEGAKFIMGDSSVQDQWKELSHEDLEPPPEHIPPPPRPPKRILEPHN
In short: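 Readout is microfluidic mobility shift (ex 488/em 530 nm) of a 2 μM OG488-labelled pTyr insulin-receptor peptide after a 10 min room-temperature reaction, following 10 min enzyme–compound preincubation. Enzyme: 0.5 nM full-length His-tagged PTPN1 in HEPES pH 7.5 buffer. IC50 fitted from % inhibition at 12 concentrations (1:3 steps).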

pSTAT5 in CD3+ T cells = experiment: pSTAT5 flow cytometry assay in mouse whole blood; type: in vivo; conditions: day 8 of dosing
Description: Whole blood was drawn into EDTA powder coated tubes by cardiac puncture from mice on day 8 of dosing with Compound 118 (2 hours after the 16th dose). 90 μL of whole blood were stimulated with 10 μL of murine IL-2 to achieve a final concentration of 100 ng IL-2/mL (R&D Systems. Minneapolis, MN, cat #402-ML) for 20 minutes at 37° C. 5% CO2. After stimulation. 1.8 mL of prewarmed BD Phosflow Lyse/Fix Buffer (BD Biosciences. San Jose. CA) was added for 20 minutes at 37° C. Cells were washed twice in FACS buffer (Dulbecco's PBS with 0.2% BSA) and incubated for 30 minutes on ice in cold Perm Buffer III (BD Biosciences. San Jose. CA). Cells were washed with FACS buffer and resuspended in 50 μL of FACS buffer with antibodies and stained for 3 hours at room temperature with gentle shaking. […] After staining, cells were washed twice with FACS buffer, and the samples were acquired on a BD LSRFortessa™ X20 flow cytometers (BD Biosciences. San Jose, CA) and analyzed with FLowJo V10 software (FlowJo, Ashland, OR). The mean fluorescence intensity (MFI) of pSTAT5 as a measure of the amount of phosphorylated STAT5 in the CD3+ T cell population from vehicle or Compound 118 treated animals was reported.

[2] = test system: MC-38 murine colon adenocarcinoma; experiment: In vivo efficacy in MC38 mouse tumor model
Description: All experiments were conducted in compliance with AbbVie's Institutional Animal Care and Use Committee and the National Institutes of Health Guide for Care and Use of Laboratory Animals guidelines in a facility accredited by the Association for the Assessment and Accreditation of Laboratory Animal Care. C57Bl/6 female mice were obtained from Charles River (Wilmington, MA). The mice were group-housed 10 per cage. Food and water were available ad libitum. Animals were acclimated to the animal facilities for a period of at least one week prior to commencement of experiments. Animals were tested in the light phase of a 12-hour light:12-hour dark schedule (lights on 0600 hours).
Cells were grown to passage 3 in vitro. A total of 1×10^5 viable MC-38 cells were inoculated subcutaneously into the right flank of female C57Bl/6 mice (7-12 weeks old) on Day 0. […] Tumor volume was calculated three times weekly. Measurements of the length (L) and width (W) of the tumor were taken via electronic caliper and the volume was calculated according to the following equation: V=L×W^2/2 using Study Director Version 3.1.399.22 (Studylog Systems, Inc, CA, USA). […] Tumor growth inhibition (TGI) was calculated as TGI=1−(Mean TVTimepoint(Treatment)/Mean TVTimepoint(Vehicle)) for each timepoint that tumor volumes were measured. […]

[3] = test system: Granzyme B+ cells within CD8+ T cells; experiment: Granzyme B staining of CD8 T cells flow cytometry assay in mouse spleen; type: in vivo; conditions: day 8 of dosing
Description: Mice were sacrificed on day 8 of dosing with Compound 118 (2 hours after the 16th dose) and spleens were excised. Spleens were dissociated with a gentleMACS dissociator (Miltenyi Biotec. Bergisch Gladbach. Germany), red blood cells lysed, and single cell suspensions were prepared. Splenocytes were stained with Zombie UV™ Fixable Viability kit (Biolegend. San Diego, CA) diluted in Dulbecco's PBS for 10 minutes at room temperature to exclude dead cells followed by staining for surface markers for 45 minutes on ice using the following flow cytometry antibodies diluted in autoMACS Running Buffer (Miltenyi Biotec. Bergisch Gladbach, Germany); Brilliant Violet 510)-labeled anti-CD45. Brilliant Ultraviolet 395-labeled anti-CD3. Brilliant Violet 786-labeled anti-CD4. APC/Cy7-labeled anti-CD8. Cells were washed twice with autoMACS Running Buffer, permeabilized with Fixation/Permeabilization buffer (FoxP3/Transcription Factor Staining Buffer Set; eBioscience) and stained intracellularly with PE-labeled anti-Granzyme B antibody diluted in Permeabilization buffer (FoxP3/Transcription Factor Staining Buffer Set; eBioscience, San Diego, CA) for 1 hour on ice. After staining, cells were washed twice with autoMACS Running Buffer, and the samples were acquired on a BD LSRFortessa™ X20 flow cytometers (BD Biosciences, San Jose, CA) and analyzed with FLowJo V10 software (FlowJo, Ashland, OR). […]

[4] = test system: B16F10 mouse melanoma cells; experiment: B16F10 IFNγ-induced cellular growth inhibition assay; type: cell-based; conditions: B16-F10, with 0.5 ng/ml IFNγ, read-out: B16F10 GI IC50
Description: B16F10 mouse melanoma cells (ATCC Cat #CRL-6475, Manassas, VA) were seeded at a density of 500 cells per well in a 384-well clear bottom plate (Corning Cat #3765, Corning, NY) in 25 μL total volume of DMEM+10% FBS (Sigma Cat #D6429 and Sigma Cat #F4135, St. Louis, MO). Cells were allowed to adhere overnight at 37° C.+5% CO2. On the following day, 12.5 μL of mouse IFNγ (RD systems Cat #485-MI/CF, Minneapolis, MN) was added to half of the plate (columns 13-24) at a concentration of 2 ng/ml for a final assay concentration of 0.5 ng/ml of IFNγ. Media only (12.5 μL of DMEM+10% FBS) was added to the remainder of the plate (columns 1-12). Next, compounds resuspended in DMSO (Sigma Cat #D2650) at 100 mM were diluted in semi-log dilutions in DMSO ranging from 100 mM to 0.001 mM and DMSO only controls were included. The compound/DMSO dilutions were further diluted 1:250 in DMEM+10% FBS, and 12.5 μL of these dilutions were added in triplicates to cells of both treatment arms (with and without IFNγ). Final compound concentrations ranged from 100 μM to 0.001 μM with a final DMSO concentration of 0.1%. […] Confluence over time for compound dilutions in the presence and absence of IFNγ was measured. […] At these time points, for each compound the percent growth inhibition at every compound dose level was calculated relative to the “DMSO/with IFNγ” control and used to determine the IC50.

[5] = target: T2, His tagged PTPN2 (TC45) protein (Homo sapiens, UniProt P17706); experiment: Mobility shift assay (MSA) to determine potency of PTPN2 inhibitors; type: biochemical; conditions: 0.5 nM enzyme, 2 μM substrate
T2 construct: made in house
T2 sequence (P17706 with tags, fused parts or gaps isoform P17706-2): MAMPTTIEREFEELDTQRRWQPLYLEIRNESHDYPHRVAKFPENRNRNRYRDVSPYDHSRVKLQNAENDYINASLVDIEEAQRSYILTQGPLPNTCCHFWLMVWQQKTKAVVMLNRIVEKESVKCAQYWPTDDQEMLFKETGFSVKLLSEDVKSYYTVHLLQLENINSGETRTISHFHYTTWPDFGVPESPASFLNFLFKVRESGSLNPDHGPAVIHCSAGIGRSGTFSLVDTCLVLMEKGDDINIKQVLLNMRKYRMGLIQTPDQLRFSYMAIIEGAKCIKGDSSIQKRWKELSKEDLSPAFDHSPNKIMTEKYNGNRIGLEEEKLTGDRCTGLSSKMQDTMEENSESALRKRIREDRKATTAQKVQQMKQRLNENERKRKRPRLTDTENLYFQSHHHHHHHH
In short: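 His-tagged human PTPN2 (TC45), 0.5 nM, preincubated 10 min at room temperature with compound (12-point, 1:3 dilutions) in HEPES pH 7.5 buffer with EGTA, EDTA, Tween 20 and DTT. Then 2 μM OG488-labelled phospho-insulin-receptor peptide was added for 10 min and quenched. % conversion was read by mobility shift, and IC50 came from % inhibition.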

Row | IC50 [4] [µM] | Structure (SMILES) | IP10 levels in plasma, fold higher than vehicle control (IP10) [fold] | IC50 [1] [µM] | pSTAT5 levels in whole blood T cells, fold higher than vehicle control (pSTAT5 in CD3+ T cells) [fold] | tolerability ([2]; 10 mg/kg/dose oral BID for 21 days) | tumor response observed ([2]; within 7-10 days of treatment) | frequency of granzyme B producing cells within CD8+ T population in spleen, fold higher than vehicle control [3] [fold] | IC50 [5] [µM]
1 |  | CC(C)CCN[C@@H]1CCc2cc(O)c(N3CC(=O)NS3(=O)=O)c(F)c2C1 (single isomer, unassigned) [Compound 118] | 1.7 | 0.001 to 0.01 | 1.6 | well tolerated, without obvious adverse health events | apparent tumor stasis and shrinkage | 3.9 | 
2 | 1 to 10 | CC(C)(C)O[C@H]1C[C@@H](CCNC2CCc3cc(O)c(N4CC(=O)NS4(=O)=O)c(F)c3C2)C1 (stereo partly drawn) [Compound 234] |  | 0.001 to 0.01 |  |  |  |  | 0.01 to 0.1
